# Experiments:
# Assay in all cases: relative viability (nuclei count vs DMSO), 5 days (fraction); higher = more cells survive
# COR-L23 = system: COR-L23
# Outline: (§1)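 Relative viability divides the nuclei count in treated wells by that in vehicle wells. Lung cancer cell lines were seeded in 1536-well plates, dosed by pin tool the next day, and fixed and stained after 5 days in one step with final 0.05% Triton X-100, 1% formaldehyde and 1 ug/ml Hoechst. Dosing was a single drug or a fixed anchor-drug dose plus five library-drug doses (not always all listed) in √10 steps, and values are medians of duplicate plates imaged at 4×.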
# EMC-BAC-2 = system: EMC-BAC-2
# Outline: as §1
# HARA = system: HARA
# Outline: as §1
# NCI-H2405 = system: NCI-H2405
# Outline: as §1
# UMC-11 = system: UMC-11
# Outline: as §1
# ChaGo-K-1 = system: ChaGo-K-1
# Outline: as §1
# SK-LU-1 = system: SK-LU-1
# Outline: as §1
# HCC-78 = system: HCC-78
# Outline: as §1
# NCI-H1793 = system: NCI-H1793
# Outline: as §1
# A-427 = system: A-427
# Outline: as §1
# NCI-H2228 = system: NCI-H2228
# Outline: as §1
# NCI-H1944 = system: NCI-H1944
# Outline: as §1
# NCI-H23 = system: NCI-H23
# Outline: as §1
# HCC-15 = system: HCC-15
# Outline: as §1
# HCC-366 = system: HCC-366
# Outline: as §1
# NCI-H2023 = system: NCI-H2023
# Outline: as §1
# NCI-H1734 = system: NCI-H1734
# Outline: as §1
# LC-2-ad = system: LC-2-ad
# Outline: as §1
# NCI-H2009 = system: NCI-H2009
# Outline: as §1
# NCI-H2126 = system: NCI-H2126
# Outline: as §1
# NCI-H1993 = system: NCI-H1993
# Outline: as §1
# NCI-H838 = system: NCI-H838
# Outline: as §1
structure (smiles),measurement,setting,value
O=C(O)c1ccc(-c2c[nH]c3ncc(-c4ccccc4)cc23)cc1C1CCCC1 + CC1(C)CCC(c2ccc(Cl)cc2)=C(CN2CCN(c3ccc(C(=O)NS(=O)(=O)c4ccc(N[C@H](CCN5CCOCC5)CSc5ccccc5)c(S(=O)(=O)C(F)(F)F)c4)cc3)CC2)C1 [Navitoclax] (partner 0.5 µM),relative viability,COR-L23; first compound 0.04 µM,1.01
same,relative viability,COR-L23; first compound 0.1265 µM,1.04
same,relative viability,COR-L23; first compound 0.4 µM,1.09
same,relative viability,COR-L23; first compound 1.265 µM,0.64
same,relative viability,EMC-BAC-2; first compound 0.04 µM,1.18
same,relative viability,EMC-BAC-2; first compound 0.1265 µM,1.23
same,relative viability,EMC-BAC-2; first compound 0.4 µM,1.16
same,relative viability,EMC-BAC-2; first compound 1.265 µM,1.22
same,relative viability,HARA; first compound 0.04 µM,1.08
same,relative viability,HARA; first compound 0.1265 µM,1.14
same,relative viability,HARA; first compound 0.4 µM,1.09
same,relative viability,HARA; first compound 1.265 µM,1.04
same,relative viability,NCI-H2405; first compound 0.04 µM,0.944
same,relative viability,NCI-H2405; first compound 0.1265 µM,0.811
same,relative viability,NCI-H2405; first compound 0.4 µM,0.864
same,relative viability,NCI-H2405; first compound 1.265 µM,0.348
same,relative viability,UMC-11; first compound 0.04 µM,0.318
same,relative viability,UMC-11; first compound 0.1265 µM,0.299
same,relative viability,UMC-11; first compound 0.4 µM,0.328
same,relative viability,UMC-11; first compound 1.265 µM,0.222
same,relative viability,ChaGo-K-1; first compound 0.04 µM,1.16
same,relative viability,ChaGo-K-1; first compound 0.1265 µM,1.3
same,relative viability,ChaGo-K-1; first compound 0.4 µM,0.888
same,relative viability,ChaGo-K-1; first compound 1.265 µM,1.32
same,relative viability,SK-LU-1; first compound 0.04 µM,0.982
same,relative viability,SK-LU-1; first compound 0.1265 µM,1.01
same,relative viability,SK-LU-1; first compound 0.4 µM,0.697
same,relative viability,SK-LU-1; first compound 1.265 µM,0.482
same,relative viability,HCC-78; first compound 0.04 µM,0.849
same,relative viability,HCC-78; first compound 0.1265 µM,0.904
same,relative viability,HCC-78; first compound 0.4 µM,0.802
same,relative viability,HCC-78; first compound 1.265 µM,0.542
same,relative viability,NCI-H1793; first compound 0.04 µM,0.538
same,relative viability,NCI-H1793; first compound 0.1265 µM,0.383
same,relative viability,NCI-H1793; first compound 0.4 µM,0.494
same,relative viability,NCI-H1793; first compound 1.265 µM,0.286
same,relative viability,A-427; first compound 0.04 µM,1.02
same,relative viability,A-427; first compound 0.1265 µM,0.936
same,relative viability,A-427; first compound 0.4 µM,0.868
same,relative viability,A-427; first compound 1.265 µM,0.708
same,relative viability,NCI-H2228; first compound 0.04 µM,0.927
same,relative viability,NCI-H2228; first compound 0.1265 µM,0.778
same,relative viability,NCI-H2228; first compound 0.4 µM,0.98
same,relative viability,NCI-H2228; first compound 1.265 µM,0.793
same,relative viability,NCI-H1944; first compound 0.04 µM,1.01
same,relative viability,NCI-H1944; first compound 0.1265 µM,1.03
same,relative viability,NCI-H1944; first compound 0.4 µM,1.07
same,relative viability,NCI-H1944; first compound 1.265 µM,0.932
same,relative viability,NCI-H23; first compound 0.04 µM,0.804
same,relative viability,NCI-H23; first compound 0.1265 µM,0.944
same,relative viability,NCI-H23; first compound 0.4 µM,0.757
same,relative viability,NCI-H23; first compound 1.265 µM,0.724
same,relative viability,HCC-15; first compound 0.04 µM,0.697
same,relative viability,HCC-15; first compound 0.1265 µM,0.746
same,relative viability,HCC-15; first compound 0.4 µM,0.662
same,relative viability,HCC-15; first compound 1.265 µM,0.373
same,relative viability,HCC-366; first compound 0.04 µM,0.993
same,relative viability,HCC-366; first compound 0.1265 µM,1.2
same,relative viability,HCC-366; first compound 0.4 µM,0.964
same,relative viability,HCC-366; first compound 1.265 µM,1.14
same,relative viability,NCI-H2023; first compound 0.04 µM,1.03
same,relative viability,NCI-H2023; first compound 0.1265 µM,1.11
same,relative viability,NCI-H2023; first compound 0.4 µM,0.987
same,relative viability,NCI-H2023; first compound 1.265 µM,0.904
same,relative viability,NCI-H1734; first compound 0.04 µM,0.706
same,relative viability,NCI-H1734; first compound 0.1265 µM,0.916
same,relative viability,NCI-H1734; first compound 0.4 µM,0.878
same,relative viability,NCI-H1734; first compound 1.265 µM,0.686
same,relative viability,LC-2-ad; first compound 0.04 µM,0.399
same,relative viability,LC-2-ad; first compound 0.1265 µM,0.5
same,relative viability,LC-2-ad; first compound 0.4 µM,0.415
same,relative viability,LC-2-ad; first compound 1.265 µM,0.173
same,relative viability,NCI-H2009; first compound 0.04 µM,1.15
same,relative viability,NCI-H2009; first compound 0.1265 µM,1.1
same,relative viability,NCI-H2009; first compound 0.4 µM,1.15
same,relative viability,NCI-H2009; first compound 1.265 µM,0.969
same,relative viability,NCI-H2126; first compound 0.04 µM,0.892
same,relative viability,NCI-H2126; first compound 0.1265 µM,0.875
same,relative viability,NCI-H2126; first compound 0.4 µM,0.745
same,relative viability,NCI-H2126; first compound 1.265 µM,0.685
same,relative viability,NCI-H1993; first compound 0.04 µM,0.955
same,relative viability,NCI-H1993; first compound 0.4 µM,0.986
same,relative viability,NCI-H1993; first compound 1.265 µM,0.795
same,relative viability,NCI-H838; first compound 0.04 µM,1.15
same,relative viability,NCI-H838; first compound 0.1265 µM,1.27
same,relative viability,NCI-H838; first compound 0.4 µM,1.22
same,relative viability,NCI-H838; first compound 1.265 µM,1.07
